Reference: patent US11419335B2, “N-arylated analogues and uses thereof” (University of Florida Research Foundation, Incorporated, priority 2016, dated 2022)
Marks after values point to notes of the source that are not given here.

Tests used:
MRSA BAA-1707 biofilms = experiment: Calgary Biofilm Device assay (MBC/MBEC), MRSA BAA-1707; assay type: cell-based, Staphylococcus aureus
Procedure: (§1) The lid of the Calgary device was then removed, washed and transferred to another 96-well plate containing 2-fold serial dilutions of the test compounds (the “challenge plate”). The total volume of media with compound in each well in the challenge plate is 150 μL. […] The lid was then removed from the challenge plate and MBC/MBEC values were determined using different final assays. […] The MBC values were determined as the concentration giving a lack of visible bacterial growth (i.e., turbidity). […] In select experiments, pegs from the Calgary device were removed from lead biofilm eradicators after final incubation, sonicated for 30 minutes in PBS and plated out to determine biofilm cell killing of lead biofilm-eradicating agents (i.e., colony forming unit per milliliter, CFU/mL).
(§2) Using a Calgary Biofilm Device, bacterial biofilms are established on pegs suspended to the bottom of a 96-well plate lid. Following biofilm establishment on lid pegs, lids are then transferred to new 96-well plates containing serial dilutions of test compound and allowed to incubate. After compound treatment, 96-well plate lids with pegs are once again transferred to 96-well plates containing fresh media. During this final phase of the assay, viable biofilms will grow and disperse planktonic cells into the media where they will grow and give a turbid well result. Conversely, wells that have no growth are a result of pegs that had eradicated bacterial biofilms. The lowest concentration at which no turbidity is observed is the minimum biofilm eradication concentration (MBEC). Using the Calgary Biofilm Device, both minimum biofilm eradication concentrations and minimum bactericidal concentrations (MBC) for planktonic bacterial can be determined using one assay from a single bacterial culture (FIG. 3A).

[1] = system: C. albicans SC5314 biofilms; experiment: MTT assay for fungal biofilm eradication (MBEC), C. albicans; assay type: cell-based, Candida albicans; conditions: Table 2B, 90% eradicated biofilm
Procedure: One colony was picked from a 24-hour old culture of Candida spp. or 48-hour old culture of C. neoformans and added to YPD liquid medium for inoculation and cultured at 37° C. overnight. Cells were then washed with PBS (Phosphate-buffered saline (10 mM potassium phosphate, 150 mM NaCl, pH 7.0)) and standardized to OD600=1.0. Microtiter wells were then treated with 50% FCS (Fetal calf serum) in PBS for at least 30 min at room temperature (FCS pre-treatment is not absolutely required for Candida spp.). The FCS was aspirated and microtiter wells were rinsed once with 200 μL PBS before 100 μL of the cell suspension was added to each microtiter well. The plate was then incubated statically at 37° C. for 2 hours. Non-adherent cells were then removed by aspiration and microtiter wells were washed with PBS twice to remove loosely associated cells.
The resulting cell culture was aspirated and wells were rinsed once with 200 μL PBS. Controls and compounds were diluted in YNB medium (200 μL) were added to microtiter wells.
Following incubation, the culture was aspirated and wells are rinsed twice with 200 μL PBS before 100 μL of MTT (0.5 mg/mL dissolved in PBS containing 1% glucose) was added to each microtiter well. The plate was then incubated at 37° C. for 30 min, or longer, until dark blue/black crystals formation could be observed (usually 2 hours at most). The MTT reaction was terminated by aspiration of the solution. The crystals were then solubilized by adding 100 μL of 40% acetic acid to the microtiter wells. Killing efficacies were monitored by eye or quantitatively measured using a plate reader (absorbance at 550 nm). MBEC values were determined as the lowest compound concentration leading to 90% eradicated biofilm. All MBEC values using the MTT assay were recorded from at least three independent experiments.

MRSA-2 biofilms = experiment: Calgary Biofilm Device assay (MBC/MBEC), MRSA-2; assay type: cell-based, Staphylococcus aureus; conditions: Table 2A; CBD assay
Procedure: as §1, §2

[2] = system: Escherichia coli clinical isolate (UAEC-1); experiment: MIC broth microdilution, UAEC-1; assay type: cell-based; conditions: for MIC UAEC-1: Table 4; for MIC: Table 1
Procedure: (§3) The minimum inhibitory concentration (MIC) for each tested compound was determined by the broth microdilution method as recommended by the Clinical and Laboratory Standards Institute (CLSI). In a 96-well plate, eleven two-fold serial dilutions of each compound were made in a final volume of 100 μL Luria Broth. Each well was inoculated with ˜10^5 bacterial cells at the initial time of incubation, prepared from a fresh log phase culture (OD600 of 0.5 to 1.0 depending on bacterial strain). The MIC was defined as the lowest concentration of compound that prevented bacterial growth after incubating 16 to 18 hours at 37° C. (MIC values were supported by spectrophotometric readings at OD600). DMSO served as our vehicle and negative control in each microdilution MIC assay. DMSO was serially diluted with a top concentration of 1% v/v.
as §3, with “for each compound was” for “for each tested compound was”, “Standards Institute (CLSI).^6 In a” for “Standards Institute (CLSI). In a”, “concentration of test compound that” for “concentration of compound that”, “37° C. The concentration range tested for each compound during this study was 0.10 to 100 μM. DMSO served” for “37° C. (MIC values were supported by spectrophotometric readings at OD600). DMSO served”, “1% v/v. All MIC values were obtained from a minimum of three independent experiments.” for “1% v/v.”

VRE ATCC 700221 biofilms = experiment: Calgary Biofilm Device assay (MBC/MBEC), VRE 700221; assay type: cell-based, Enterococcus faecium; conditions: for VRE MBC / VRE MBEC: Table 2A; for VRE 700221 MBEC: biofilm
Procedure: as §1, §2

C. albicans SC5314 [3] = experiment: Minimum fungicidal concentration assay, C. albicans; assay type: cell-based, Candida albicans; conditions: Table 2B
C. albicans SC5314 [4] = experiment: Fungal MIC susceptibility assay, C. albicans; assay type: cell-based, Candida albicans; conditions: for C. albicans SC5314 MIC: Table 2B
Procedure: Fungal minimum inhibition concentrations (MICs) were determined using standard microdilution methods according to the Clinical and Laboratory Standards Institute document M27-A3. The test compound concentration ranged from 0.01 to 100 μM. Amphotericin B (AmB) and itraconazole (ITC) (Fisher Scientific) were included as positive controls. DMSO, the vehicle control, was used at ≤1% v/v for these experiments. The fungal M27-A3 standard MIC assay protocol requires the following inoculum preparation protocol: The organisms were cultured onto PDA medium at 35° C. The inoculum is prepared by picking five colonies from 24-hour old culture of Candida spp. or 48-hour old culture of C. neoformans. The inoculum was suspended in 5 ml of sterile water, the resulting suspension was vortexed for 15 seconds and the cell density adjusted (by adding more sterile water) to an OD530=0.30, which yields a suspension of 1×10^6 to 5×10^6 cells per mL. The suspension was diluted 50 times and then 20 times using RPMI 1640 medium to obtain the two times test inoculum (1×10^3 to 5×10^3 cells per mL). The following steps are the same with the standard bacterial MIC protocol using 96-well plates. NOTE: RPMI 1640 medium was used in the fungal MIC assay (for both cell inoculum and compound dilution).

[5] = Table 2, CBD assay, planktonic cells

Row | SMILES | MRSA BAA-1707 MBC (MRSA BAA-1707 biofilms; Table 2A, CBD assay) | MRSA BAA-1707 MBEC (MRSA BAA-1707 biofilms; Table 2A, CBD assay) | C. albicans SC5314 MBEC [1] | MRSA-2 MBC (MRSA-2 biofilms) | MRSA-2 MBEC (MRSA-2 biofilms) | MIC UAEC-1 [2] | VRE MBC (VRE ATCC 700221 biofilms; CBD assay) | VRE MBEC (VRE ATCC 700221 biofilms; CBD assay) | C. albicans SC5314 MBC (C. albicans SC5314 [3]) [µM] | C. albicans SC5314 MIC (C. albicans SC5314 [4]) [µM] | MIC C. albicans SC5314 (C. albicans SC5314 [4]; Table 4, antifungal) [µM] | also measured
1 | CCCCCCCCCCCCCCCCn1cc[n+](CCO)c1C.[Br-] [Compound 11] | 23.5^a/ μM | 46.9^a μM | 7.82 | 11.7 µM | 31.3 µM | 12.5 µM | 3.0^a/ μM | 3.9 µM | 6.25 | 3.13 | 3.13 | –
2 | CCCCCCCCCCCCCCCCn1cc[n+](Cc2ccccc2)c1C [NH125, 3-benzyl-1-hexadecyl-2-methyl-1H-imidazol-3-ium bromide, reference compound] | – | – | – | – | – | 18.8a micromolar | – | – | – | – | – | minimum biofilm eradication concentration (MBEC), MRSA BAA-1707 biofilms (MRSA BAA-1707 biofilms): 46.9 µM; MBC (MRSA BAA-1707 biofilms; Staphylococcus aureus, Table 2, CBD assay, planktonic cells): 23.5 µM; MRSA BAA-1707 MBEC (MRSA BAA-1707 biofilms; Table 2, CBD assay, biofilm): 46.9 µM; reduction of viable biofilm cells (MRSA BAA-1707 biofilms; at 62.5, colony counts of CBD pegs, MRSA BAA-1707): 3 to 4 log; MIC ([2]; Escherichia coli): 18.8 µM; MBC (VRE ATCC 700221 biofilms; Enterococcus, Table 2, CBD assay, planktonic cells): 59 µM; VRE 700221 MBEC (VRE ATCC 700221 biofilms; Table 2, CBD assay): 11.7 µM; MIC (C. albicans SC5314 [4]; Candida albicans, SC5314, Table 4, antifungal): 3.13 µM
3 | CCCCCCCCCCCCCCCC[N+](C)(C)Cc1ccccc1.[Cl-] [BAC-16, reference compound] | – | – | 15.63 | – | – | 6.25 µM | – | – | 6.25 | 3.13 | 3.13 | –
4 | CCCCCCCCCCCCCCCCn1cc[n+](Cc2cccc(F)c2)c1C.[Br-] [Compound 18] | – | – | – | 93.8^a/93.8^a μM | 93.8^a/93.8^a μM | – | 5.85^a/ μM | 11.7^a μM | – | – | – | –
5 | CCCCCCCCCCCCCCCCn1cc[n+](C)c1C.[I-] [Compound 8] | 11.7^a/ μM | 31.3 µM | 15.63 | 11.7 µM | 23.5 µM | 12.5 µM | 3.9/3.9 μM | 3.9/3.9 μM | 6.25 | 3.13 | 3.13 | –
6 | CCCCCCCCCCCC[N+](C)(C)CC[N+](C)(C)CC[N+](C)(C)CCCCCCCCCCCC [QAC-10, reference compound] | 93.8^a/ μM | 93.8^a μM | – | 31.3 µM | 125 µM | 12.5 µM | 3.0^a/ μM | 3.0^a μM | – | – | – | MRSA BAA-1707 MBEC (MRSA BAA-1707 biofilms; Table 2, CBD assay, biofilm): 93.8^a/93.8^a μM; MRSA BAA-1707 MBC (MRSA BAA-1707 biofilms; [5]): 93.8^a/93.8^a μM; MIC [2]: 12.5 µM; MBEC, VRE biofilms (VRE ATCC 700221 biofilms): 3.0 µM; VRE 700221 MBEC (VRE ATCC 700221 biofilms; Table 2, CBD assay): 3.0^a/3.0^a μM; VRE 700221 MBC (VRE ATCC 700221 biofilms; [5]): 3.0^a/3.0^a μM
7 | CCCCCCCCCCCCCCCCn1cc(-c2ccccc2)[n+](C)n1.[I-] [Compound 30] | 11.7^a/ μM | 23.5^a μM | – | 31.3^b/31.3 μM | 31.3^b/31.3 μM | – | – | – | – | – | – | –
